From patent publication US9359451B2, “Methods and compositions for treating trauma-hemorrhage using estrogen and derivatives thereof” (THE UAB RESEARCH FOUNDATION, priority 2012, dated 2016)
Entries after “also recorded” stand apart in the source; their conditions may differ.

Legend:
[1] = tested on: TNF-α, IL-1β, IL-6 and MCP-1 mRNA; experiment: Spinal cord injury: quantitative real time PCR of cytokines and chemokines; format: in vivo, mouse; details: 24 h after SCI; ICI 182,780: co-administered with 17β-estradiol
Method: Mice were anaesthetized using chloral hydrate (400 mg/kg body weight) (Genovese 2006). A longitudinal incision was made on the midline of the back, exposing the paravertebral muscles. These muscles were dissected away exposing T5-T8 vertebrae. The spinal cord was exposed via a four-level T6-T7 laminectomy and SCI was produced by extradural compression using an aneurysm clip with a closing force of 24 g. Following surgery, 1 ml of saline was administered subcutaneously in order to replace the blood volume lost during surgery. During the surgery and recovery from anesthesia, the mice were placed on a warm heating pad and covered with a warm towel. The mice were singly housed in a temperature-controlled room at 27° C. and survival was measured over a period of 10 days. Food and water were provided to the mice ad libitum. During this time period, the animals' bladders were manually voided twice a day until the mice were able to regain normal bladder function. In all injured groups, the spinal cord was compressed for 1 min. Sham-injured animals were only subjected to laminectomy.
In the experiments regarding the motor score, the animals from all the experimental groups were observed and treated daily for 9 days after SCI. At different time points (see FIG. 30), the mice (n=10 from each group for each of the 3 time points) were sacrificed in order to evaluate the various parameters as described below.
A segment of spinal cord (320±124 mg) encompassing lesion epicentre was homogenized in a solution of Tri-reagent (Sigma®, Germany) according to the manufacturer's instructions. Total cellular RNA was isolated from the aqueous phase then the levels of […], TNF-α, MCP-1, IL-6 gene products were determined by Real Time PCR. The amount of each PCR product of gene target was normalized to Glyceraldehyde-3-phosphate dehydrogenase (GAPDH). The RNA extracted from spinal cord of individual mice was reverse transcripted into first strand cDNA with Random Hexamers and purified Avian Myeloblastosis Virus Reverse Transcriptase (Takara, Japan) in […] of reaction after a DNAse treatment and stored at −80° C. until use. Primers pair for each cytokine was designed using the software Oligo (Molecular Biology Insights, Cascade, Colo., USA). The PCR reactions were performed using the following cycle conditions: a denaturation step for 15 minutes at 95° C. and 40 cycles of 30 seconds denaturation at 94° C., 30 seconds annealing (TNF-á 61° C., IL-6 54° C., IL-1β 61° C., MCP-1 54° C., GADPH 56° C.), 15 sec at 72° C. and 7 minutes of final extension at 72° C. The PCR products were visualized by electrophoresis on agarose gel 2% stained by ethidium bromide. The purified PCR products were cloned into a plasmid vector, transformed into the E. coli TOP 10 (Invitrogen) and purified with Turbo Kit (QBIOgene, CA, USA). The recombinant plasmid was linearized upstream the target sequence using the restriction endonuclease PmeI (Fermentas, Canada). Tenfold dilutions of recombinant plasmid from 10^9 copies down to 10^1 copies were used as standards. The real time PCR assay was developed and evaluated on the Rotor-Gene 3000 system (Corbett Research, Australia). Reaction was carried out in a final volume of 25 μl containing 1× of SYBR PREMIX Ex Taq Takara, 200 nM each forward and reverse primers, 1× of Rox References Dye and 2 μl of cDNA. Cycling parameters were the following: 10 minutes at 95° C. for polymerase activation followed by 40 cycles of 15 seconds at 95° C., 15 seconds annealing (TNF-α 61° C., […], IL-6 54° C., IL-1β 61° C., MCP-1 54° C., GADPH 56° C.) 20 sec at 72° C. The signal was acquired on the FAM channel (multichannel machine) (source, 470 nm; detector, 510 nm; gain set to 5) with the fluorescence reading taken at the end of each 72° C. step. A melt step was added after a cycling run performed with the same parameters of the SYBR Green assay. […]

myeloperoxidase (MPO) = experiment: Spinal cord injury: neutrophil infiltration, MPO activity and MPO staining; format: in vivo, mouse; details: 24 h after SCI; ICI 182,780: co-administered with 17β-estradiol
Method: Mice were anaesthetized using chloral hydrate (400 mg/kg body weight) (Genovese 2006). A longitudinal incision was made on the midline of the back, exposing the paravertebral muscles. These muscles were dissected away exposing T5-T8 vertebrae. The spinal cord was exposed via a four-level T6-T7 laminectomy and SCI was produced by extradural compression using an aneurysm clip with a closing force of 24 g. Following surgery, 1 ml of saline was administered subcutaneously in order to replace the blood volume lost during surgery. During the surgery and recovery from anesthesia, the mice were placed on a warm heating pad and covered with a warm towel. […] Food and water were provided to the mice ad libitum. During this time period, the animals' bladders were manually voided twice a day until the mice were able to regain normal bladder function. In all injured groups, the spinal cord was compressed for 1 min. Sham-injured animals were only subjected to laminectomy. […] In the experiments regarding the motor score, the animals from all the experimental groups were observed and treated daily for 9 days after SCI. At different time points (see FIG. 30), the mice (n=10 from each group for each of the 3 time points) were sacrificed in order to evaluate the various parameters as described below. […] After deparaffinization, endogenous peroxidase was quenched with 0.3% (v/v) hydrogen peroxide in 60% (v/v) methanol for 30 min. […] Non-specific adsorption was minimized by incubating the section in 2% (v/v) normal goat serum in PBS for 20 min. Endogenous biotin or avidin binding sites were blocked by sequential incubation for 15 min with biotin and avidin (DBA), respectively. […] Sections were washed with PBS, and incubated with secondary antibody. Specific labeling was detected with a biotin-conjugated goat anti-rabbit IgG and avidin-biotin peroxidase complex (DBA) and counterstained with nuclear fast red. To verify the binding specificity for nitrotyrosine, iNOS, COX-2, Bax, and Bcl-2, some sections were also incubated with only the primary antibody (no secondary) or with only the secondary antibody (no primary). […] Immunocytochemistry photographs (n=5) were assessed by densitometry as previously described (Shea 1994) by using Imaging Densitometer (AxioVision, Zeiss, Milan, Italy) and a computer program. Myeloperoxidase (MPO) activity, an indicator of PMN accumulation, was determined as previously described (Mullane 1985) 24 h after SCI. […] The rate of change in absorbance was measured spectrophotometrically at 650 nm. MPO activity was defined as the quantity of enzyme degrading 1 μmol of peroxide per minute at 37° C. and was expressed in milliunits/g of wet tissue.

SMILES: C[C@]12CC[C@@H]3c4ccc(O)cc4CC[C@H]3[C@@H]1CC[C@@H]2O [17β-estradiol]
- IL-1β mRNA levels in spinal cord [1]: significantly reduced
- IL-6 mRNA levels in spinal cord [1]: significantly reduced
- MCP-1 mRNA levels in spinal cord [1]: significantly reduced
- TNF-α mRNA levels in spinal cord [1]: significantly reduced
- MPO activity in spinal cord (myeloperoxidase (MPO)): significantly attenuated; also recorded: significantly reduced the SCI-induced increase in MPO activity
- staining for MPO (myeloperoxidase (MPO)): visibly and significantly reduced

SMILES: C[C@]12CC[C@@H]3c4ccc(O)cc4C[C@@H](CCCCCCCCC[S+]([O-])CCCC(F)(F)C(F)(F)F)[C@H]3[C@@H]1CC[C@@H]2O (stereo partly drawn) [ICI 182,780]
- IL-1β mRNA levels in spinal cord [1]: significantly blocked the effect of the 17β-estradiol
- IL-6 mRNA levels in spinal cord [1]: significantly blocked the effect of the 17β-estradiol
- MCP-1 mRNA levels in spinal cord [1]: significantly blocked the effect of the 17β-estradiol
- TNF-α mRNA levels in spinal cord [1]: significantly blocked the effect of the 17β-estradiol
- MPO activity in spinal cord (myeloperoxidase (MPO)): significantly blocked the effect of the 17β-estradiol
- staining for MPO (myeloperoxidase (MPO)): significantly blocked the effect of the 17β-estradiol
